{"source": "PubChem BioAssay AID272", "about": "(DTP/NCI, 2004)", "tested_on": "Lewis lung carcinoma i.m., BDF1 mice, T/C %", "assay": "NCI In Vivo Anticancer Drug Screen. Data for tumor model Lewis Lung Carcinoma (intramuscular) in B6D2F1 (BDF1) mice", "method_in_brief": "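Value is the ratio of a treated-group measurement (T) to the matching vehicle-control measurement (C), using either survival or tumour size in mice bearing transplanted tumours.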", "key": {"[1]": {"conditions": "endpoint: median survival time, dose: 25.0 mg/kg/injection, schedule: Q01DX011 (ip), vehicle: saline, higher = longer survival"}, "[2]": {"conditions": "endpoint: median survival time, dose: 100.0 mg/kg/injection, schedule: Q01DX011 (ip), vehicle: saline, higher = longer survival"}, "[3]": {"conditions": "endpoint: median survival time, dose: 400.0 mg/kg/injection, schedule: Q01DX011 (ip), vehicle: saline, higher = longer survival"}}, "note": "Records with an inconclusive call do not appear."}
{"smiles": "OCC1OC(n2cnc3c(Cl)ncnc32)C(O)C1O", "note": "(stereo unspecified)", "values": [{"measurement": "T/C", "setting": "endpoint: mean tumor weight (est.), dose: 25.0 mg/kg/injection, schedule: Q01DX011 (ip), vehicle: saline, higher = larger tumour", "result": "121 % of control"}, {"measurement": "T/C", "setting": "endpoint: mean tumor weight (est.), dose: 50.0 mg/kg/injection, schedule: Q01DX011 (ip), vehicle: saline, higher = larger tumour", "result": "91 % of control"}, {"measurement": "T/C", "setting": "endpoint: mean tumor weight (est.), dose: 100.0 mg/kg/injection, schedule: Q01DX011 (ip), vehicle: saline, higher = larger tumour", "result": "117 % of control"}, {"measurement": "T/C", "setting": "endpoint: mean tumor weight (est.), dose: 400.0 mg/kg/injection, schedule: Q01DX011 (ip), vehicle: saline, higher = larger tumour", "result": "94 % of control"}, {"measurement": "T/C", "setting": "endpoint: mean tumor weight, dose: 25.0 mg/kg/injection, schedule: Q01DX011 (ip), vehicle: Klucel (hydroxypropylcellulose) (HPC), higher = larger tumour", "result": "44 % of control"}, {"measurement": "T/C", "setting": "endpoint: mean tumor weight, dose: 200.0 mg/kg/injection, schedule: Q01DX011 (ip), vehicle: Klucel (hydroxypropylcellulose) (HPC), higher = larger tumour", "result": "88 % of control"}, {"measurement": "T/C", "setting": "[1]", "result": "100 % of control"}, {"measurement": "T/C", "setting": "endpoint: median survival time, dose: 25.0 mg/kg/injection, schedule: Q01DX012 (ip), vehicle: Klucel (hydroxypropylcellulose) (HPC), higher = longer survival", "result": "95 % of control"}, {"measurement": "T/C", "setting": "[2]", "result": "98 % of control"}, {"measurement": "T/C", "setting": "endpoint: median survival time, dose: 200.0 mg/kg/injection, schedule: Q01DX012 (ip), vehicle: Klucel (hydroxypropylcellulose) (HPC), higher = longer survival", "result": "104 % of control"}, {"measurement": "T/C", "setting": "[3]", "result": "92 % of control"}]}
{"smiles": "O=c1[nH]cc(F)c(=O)n1C1OC(CO)C(O)C1O", "note": "(stereo unspecified)", "values": [{"measurement": "T/C", "setting": "endpoint: mean tumor weight (est.), dose: 75.0 mg/kg/injection, schedule: Q01DX011 (ip), vehicle: saline, higher = larger tumour", "result": "67 % of control"}, {"measurement": "T/C", "setting": "endpoint: mean tumor weight (est.), dose: 150.0 mg/kg/injection, schedule: Q01DX011 (ip), vehicle: saline, higher = larger tumour", "result": "99 % of control"}, {"measurement": "T/C", "setting": "endpoint: mean tumor weight (est.), dose: 300.0 mg/kg/injection, schedule: Q01DX011 (ip), vehicle: saline, higher = larger tumour", "result": "106 % of control"}, {"measurement": "T/C", "setting": "endpoint: mean tumor weight (est.), dose: 600.0 mg/kg/injection, schedule: Q01DX011 (ip), vehicle: saline, higher = larger tumour", "result": "82 % of control"}, {"measurement": "T/C", "setting": "endpoint: mean tumor weight (est.), dose: 1200.0 mg/kg/injection, schedule: Q01DX011 (ip), vehicle: saline, higher = larger tumour", "result": "84 % of control"}, {"measurement": "T/C", "setting": "endpoint: median survival time, dose: 75.0 mg/kg/injection, schedule: Q01DX011 (ip), vehicle: saline, higher = longer survival", "result": "107 % of control"}, {"measurement": "T/C", "setting": "endpoint: median survival time, dose: 600.0 mg/kg/injection, schedule: Q01DX011 (ip), vehicle: saline, higher = longer survival", "result": "98 % of control"}, {"measurement": "T/C", "setting": "endpoint: median survival time, dose: 1200.0 mg/kg/injection, schedule: Q01DX011 (ip), vehicle: saline, higher = longer survival", "result": "107 % of control"}]}
{"smiles": "Cc1c(N)nc(C(CC(N)=O)NCC(N)C(N)=O)nc1C(=O)NC(C(=O)NC(C)C(O)C(C)C(=O)NC(C(=O)NCCc1nc(-c2nc(C(=O)NCCC[S+](C)C)cs2)cs1)C(C)O)C(OC1OC(CO)C(O)C(O)C1OC1OC(CO)C(O)C(OC(N)=O)C1O)c1cnc[nH]1", "note": "(stereo unspecified)", "values": [{"measurement": "T/C", "setting": "endpoint: median survival time, dose: 6.5 mg/kg/injection, schedule: Q01DX011 (ip), vehicle: saline, higher = longer survival", "result": "152 % of control"}, {"measurement": "T/C", "setting": "endpoint: median survival time, dose: 10.8 mg/kg/injection, schedule: Q01DX011 (ip), vehicle: saline, higher = longer survival", "result": "168 % of control"}, {"measurement": "T/C", "setting": "endpoint: median survival time, dose: 18.0 mg/kg/injection, schedule: Q01DX011 (ip), vehicle: saline, higher = longer survival", "result": "166 % of control"}]}
{"smiles": "Cc1ccc(NC(=O)N(CCCl)N=O)cc1C", "values": [{"measurement": "T/C", "setting": "endpoint: median survival time, dose: 8.4 mg/kg/injection, schedule: Q07DX003 (ip), vehicle: Klucel (hydroxypropylcellulose) (HPC), higher = longer survival", "result": "106 % of control"}, {"measurement": "T/C", "setting": "endpoint: median survival time, dose: 14.0 mg/kg/injection, schedule: Q07DX003 (ip), vehicle: Klucel (hydroxypropylcellulose) (HPC), higher = longer survival", "result": "91 % of control"}, {"measurement": "T/C", "setting": "endpoint: median survival time, dose: 23.0 mg/kg/injection, schedule: Q07DX003 (ip), vehicle: Klucel (hydroxypropylcellulose) (HPC), higher = longer survival", "result": "97 % of control"}]}
{"smiles": "CCOC(N)=O", "values": [{"measurement": "T/C", "setting": "[1]", "result": "110 % of control"}, {"measurement": "T/C", "setting": "[2]", "result": "100 % of control"}, {"measurement": "T/C", "setting": "endpoint: median survival time, dose: 200.0 mg/kg/injection, schedule: Q01DX011 (ip), vehicle: saline, higher = longer survival", "result": "104 % of control"}, {"measurement": "T/C", "setting": "[3]", "result": "110 % of control"}]}
{"smiles": "C[C@H]1CN1C1=CC(=O)C(N2C[C@@H]2C)=CC1=O", "values": [{"measurement": "T/C", "setting": "endpoint: median survival time, dose: 0.5 mg/kg/injection, schedule: Q01DX011 (ip), vehicle: saline with Tween-80, higher = longer survival", "result": "102 % of control"}, {"measurement": "T/C", "setting": "endpoint: median survival time, dose: 1.0 mg/kg/injection, schedule: Q01DX011 (ip), vehicle: saline with Tween-80, higher = longer survival", "result": "113 % of control"}, {"measurement": "T/C", "setting": "endpoint: median survival time, dose: 4.0 mg/kg/injection, schedule: Q01DX011 (ip), vehicle: saline with Tween-80, higher = longer survival", "result": "108 % of control"}]}
{"smiles": "C=CCN1/C(=C/C=C\\c2sc3ccccc3[n+]2CC=C)Sc2ccccc21", "values": [{"measurement": "T/C", "setting": "endpoint: mean tumor weight (est.), dose: 0.07 mg/kg/injection, schedule: Q01DX011 (ip), vehicle: saline, higher = larger tumour", "result": "89 % of control"}, {"measurement": "T/C", "setting": "endpoint: mean tumor weight (est.), dose: 0.13 mg/kg/injection, schedule: Q01DX011 (ip), vehicle: saline, higher = larger tumour", "result": "87 % of control"}, {"measurement": "T/C", "setting": "endpoint: mean tumor weight (est.), dose: 0.25 mg/kg/injection, schedule: Q01DX011 (ip), vehicle: saline, higher = larger tumour", "result": "117 % of control"}, {"measurement": "T/C", "setting": "endpoint: mean tumor weight (est.), dose: 0.5 mg/kg/injection, schedule: Q01DX011 (ip), vehicle: saline, higher = larger tumour", "result": "93 % of control"}, {"measurement": "T/C", "setting": "endpoint: mean tumor weight (est.), dose: 1.0 mg/kg/injection, schedule: Q01DX011 (ip), vehicle: saline, higher = larger tumour", "result": "113 % of control"}, {"measurement": "T/C", "setting": "endpoint: median survival time, dose: 0.06 mg/kg/injection, schedule: Q01DX011 (ip), vehicle: saline, higher = longer survival", "result": "93 % of control"}, {"measurement": "T/C", "setting": "endpoint: median survival time, dose: 0.13 mg/kg/injection, schedule: Q01DX011 (ip), vehicle: saline, higher = longer survival", "result": "86 % of control"}, {"measurement": "T/C", "setting": "endpoint: median survival time, dose: 0.25 mg/kg/injection, schedule: Q01DX011 (ip), vehicle: saline, higher = longer survival", "result": "87 % of control"}, {"measurement": "T/C", "setting": "endpoint: median survival time, dose: 0.5 mg/kg/injection, schedule: Q01DX011 (ip), vehicle: saline, higher = longer survival", "result": "89 % of control"}]}
